The values that follow come from patent US8822430B2 (Gilead Sciences, Inc., priority 2009, dated 2014).

One test deals with HCV 1b RLuc cells (dicistronic genotype 1b Con1 replicon). Description: Renilla luciferase (RLuc)-based HCV replicon reporter assay. It is filed as cell-based, HCV genotype 1b. Particulars: HCV 1b RLuc replicon, 72 hours; read-out: Activity (antiviral potency [EC50]). The essentials:
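HCV 1b RLuc cells carrying a dicistronic genotype 1b Con1 replicon were treated with serially diluted compounds from 10 mM DMSO stocks. After 72 h, cells were lysed and Renilla luciferase activity measured. EC50 was obtained by non-linear regression.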
In general terms: A replicon is a self-replicating genome or part of one, used to study replication in cells.
As a reminder, the EC50 is the concentration at which the effect is half-maximal. In the case of `COC(=O)N[C@H](C(=O)N1CCC[C@H]1c1ncc(-c2ccc(-c3ccc(-c4cnc([C@@H]5CSC(c6ccncc6)N5C(=O)OCc5ccccc5)[nH]4)cc3)cc2)[nH]1)C(C)C` (single isomer, unassigned) [drawing 1301], the EC50 is 0.0765 nM.

For `COC(=O)N[C@H](C(=O)N1CCC[C@H]1c1ncc(-c2ccc(-c3ccc(-c4cnc([C@@H]5CSC(c6ccncc6)N5C(=O)OCc5ccccc5)[nH]4)cc3)cc2)[nH]1)C(C)C` (single isomer, unassigned) [drawing 1302], the EC50 was found to be 0.0209 nM.

Still in this test, the particulars now being: Hepatitis C virus, 72 h, HCV 1b RLuc replicon, 72 hours; read-out: Activity (antiviral potency [EC50]).
Consider `COC(=O)N[C@H](C(=O)N1CCC[C@H]1c1ncc(-c2ccc(-c3ccc(-c4cnc([C@@H]5CN(C(C)=O)CN5C(=O)[C@@H](NC(=O)OC)C(C)C)[nH]4)cc3)cc2)[nH]1)C(C)C`, for which the concentration for a half-maximal effect (EC50) was 0.0852 nM. The same measure, in the same setting: under `COC(=O)N[C@H](C(=O)N1CCC[C@H]1c1nc(-c2cccc(Oc3ccc(-c4cnc([C@@H]5CCCN5C(=O)[C@@H](NC(=O)OC)C(C)C)[nH]4)cc3)c2)c[nH]1)C(C)C` stands 0.0539 nM; under `COC(=O)N[C@H](C(=O)N1CCC[C@H]1c1ncc(-c2ccc(C#Cc3ccc(-c4cnc([C@@H]5CCCN5C(=O)[C@@H](NC(=O)OC)C(C)C)[nH]4)cc3)cc2)[nH]1)C(C)C`, 0.0126 nM. As to `COC(=O)N[C@H](C(=O)N1CCC[C@H]1c1ncc(-c2ccc(N3CCN(c4ccc(-c5cnc([C@@H]6CCCN6C(=O)[C@@H](NC(=O)OC)C(C)C)[nH]5)cc4)CC3)cc2)[nH]1)C(C)C`, the EC50 was 0.199 nM. On to `COC(=O)N[C@H](C(=O)N1CCC[C@H]1c1ncc(-c2ccc3c(c2)COCc2cc(-c4cnc([C@@H]5CCCN5C(=O)[C@@H](NC(=O)OC)C(C)C)[nH]4)ccc2-3)[nH]1)C(C)C`, for which the EC50 is 0.0327 nM. The same measure, in the same setting: the figure for `COC(=O)N[C@H](C(=O)N1CCC[C@H]1c1ncc(C#Cc2ccc(-c3cnc([C@@H]4CCCN4C(=O)[C@@H](NC(=O)OC)C(C)C)[nH]3)cc2)[nH]1)C(C)C` is 0.139 nM. Same read-out and setting: the figure for `COC(=O)N[C@H](C(=O)N1CCC[C@H]1CNC(=O)c1ccc(-c2ccc(-c3cnc([C@@H]4CCCN4C(=O)[C@@H](NC(=O)OC)C(C)C)[nH]3)cc2)cc1)C(C)C` is 0.0915 nM; for `COC(=O)N[C@H](C(=O)N1CCC[C@H]1c1nc2ccc(-c3ccc(-c4cnc([C@@H]5[C@H]6CC[C@H](C6)N5C(=O)[C@@H](NC(=O)OC)C(C)C)[nH]4)cc3)cc2[nH]1)C(C)C` it is 0.0553 nM. With `COC(=O)N[C@H](C(=O)N1CCC[C@H]1c1ncc(-c2ccc(-c3ccc(-c4cnc([C@@H]5CC[C@@H]6CC[C@H](NC(=O)OC(C)(C)C)C(=O)N65)[nH]4)cc3)cc2)[nH]1)C(C)C`, the EC50 was found to be 0.325 nM.

`COC(=O)N[C@H](C(=O)N1CCC[C@H]1c1ncc(-c2ccc(-c3ccc(-c4cnc(CN5CCC[C@H](N)C5=O)[nH]4)cc3)cc2)[nH]1)C(C)C`: the EC50 was 4.8 nM. For `COC(=O)N[C@H](C(=O)N1CCC[C@H]1c1ncc(-c2ccc(-c3ccc(-c4cnc(CN5CCC[C@H](NC(=O)OC(C)(C)C)C5=O)[nH]4)cc3)cc2)[nH]1)C(C)C`, the EC50 came out at 0.058 nM.

`COC(=O)N[C@H](C(=O)N1CCC[C@H]1c1nc2ccc(-c3ccc4nc([C@@H]5CCCN5C(=O)[C@@H](NC(=O)OC)C(C)C)[nH]c4c3)cc2[nH]1)C(C)C`: the EC50 came to 35.5 nM.

With `CN[C@H](C(=O)N1CCC[C@H]1c1nc2ccc(-c3ccc(-c4ccc(-c5ccc6nc([C@@H]7CCCN7C(=O)[C@@H](NC(=O)OC)C(C)C)[nH]c6c5)cc4)cc3)cc2[nH]1)C(C)C`, the EC50 is 0.0441 nM. Still for that read-out and setting: under `COC(=O)N[C@H]1CCCN(Cc2ncc(-c3ccc(-c4ccc(-c5cnc([C@@H]6CCCN6C(=O)[C@@H](NC(=O)OC)C(C)C)[nH]5)cc4)cc3)[nH]2)C1=O` stands 0.147 nM; under `COC(=O)N[C@H]1CC[C@H]2CC[C@@H](c3ncc(-c4ccc(-c5ccc(-c6cnc([C@@H]7CCCN7C(=O)[C@@H](NC(=O)OC)C(C)C)[nH]6)cc5)cc4)[nH]3)N2C1=O`, 0.156 nM.

Consider `COC(=O)N[C@H](C(=O)N1CCC[C@H]1c1ncc(C#CC#Cc2cnc([C@@H]3CCCN3C(=O)[C@@H](NC(=O)OC)C(C)C)[nH]2)[nH]1)C(C)C`, for which the EC50 came out at 1.33 nM.

With `COC(=O)N[C@H](C(=O)N1CCC[C@H]1c1nc2ccc(-c3ccc(-c4ccc5nc([C@@H]6CCCN6C(=O)[C@@H](NC(=O)OC)C(C)C)[nH]c5c4)cc3)cc2[nH]1)C(C)C`, the EC50 came out at 0.0099 nM. With `COC(=O)NC(C(=O)N1CCC[C@H]1c1ncc(-c2ccc(-c3ccc(-c4cnc([C@@H]5CCCN5C(=O)[C@@H](NC(=O)OC)C(C)C)[nH]4)cc3)c3ccccc23)[nH]1)C(C)C` (stereo partly drawn), the EC50 amounted to 0.0067 nM. On the same count and under the same terms, the figure for `COC(=O)N[C@H](C(=O)N1CCC[C@H]1c1ncc(-c2ccc(-c3ccc(-c4cnc(CN5CC(=O)N[C@@H](C(C)C)C5=O)[nH]4)cc3)cc2)[nH]1)C(C)C` is 0.513 nM; for `COC(=O)N[C@H](C(=O)N1CCC[C@H]1C(=O)Nc1cccc(-c2ccc(-c3ccc(-c4cnc([C@@H]5CCCN5C(=O)[C@@H](NC(=O)OC)C(C)C)[nH]4)cc3)cc2)c1)C(C)C` it is 0.0111 nM.

The test is the same for the next values; noted with them: Hepatitis C virus, 72 h, read-out: Activity (antiviral potency [EC50]).
As for `COC(=O)N[C@H](C(=O)N1CCC[C@H]1C(=O)Nc1ccc(NC(=O)c2ccc(NC(=O)[C@@H]3CCCN3C(=O)[C@@H](NC(=O)OC)C(C)C)cc2)cc1)C(C)C`, the EC50 is 37.8 nM.

Still in this test, the particulars now being: Hepatitis C virus, GETYPE1B, 72 h, HCV 1b RLuc replicon, 72 hours; read-out: Activity (antiviral potency [EC50]).
Consider `COC(=O)N[C@H](C(=O)N1CCC[C@H]1c1ncc(-c2ccc3cc(-c4cnc([C@@H]5CCCN5C(=O)[C@@H](NC(=O)OC)C(C)C)[nH]4)ccc3c2)[nH]1)C(C)C`, for which the EC50 was found to be 0.0511 nM.
